Assay results as given in patent publication US9616046B2, “Hepatocyte-proliferating agent” (JAPAN BIO PRODUCTS CO., LTD., priority 2013, dated 2017).

System: rat normal hepatocytes
Test: Intracellular signaling pathway analysis using kinase inhibitors (DNA synthesis activity, BrdU ELISA)
Format: cell-based
Details: PARI-S001 (pyroglutamic acid 10 mM) plus inhibitor; PD98059, SB203580, LY294002 6.3-50 μM, rapamycin 1.6-12.5 ng/mL; 0.5% DMSO; 22 hours
Description: The intracellular signaling pathway analysis was carried out in order to clarify through which intracellular signaling pathway the PARI-S001 promoted cell proliferation activity. PARI-S001 and various kinase inhibitors were used to measure the cell proliferation activity. The measurement method used was the same method as that in the above-described <Normal Cell Proliferation Test>. The rat normal hepatocytes were cultured for 3 hours after seeding, followed by replacement with the medium to which […] (pyroglutamic acid concentration: 10 mM) and each kinase inhibitor were simultaneously added. The concentration of rapamycin (an inhibitor of mTOR) was adjusted to a final concentration of 1.6 ng/mL, 3.1 ng/mL, 6.3 ng/mL, or 12.5 ng/mL. The concentration of PD98059 (an inhibitor of MEK1 and MEK2), SB203580 (an inhibitor of p38 of MAPK), and LY294002 (an inhibitor of PI3K) was adjusted to a final concentration of 6.3 μM, 12.5 μM, 25 μM, or 50 μM. To promote the dissolution of each kinase inhibitor, dimethyl sulfoxide (hereinafter abbreviated as “DMSO”) was added to a final concentration of 0.5% to the medium. Similarly, DMSO was added to a final concentration of 0.5% to the control. Culture was further carried out for 22 hours after medium replacement, followed by evaluating DNA synthesis activity using a Cell Proliferation ELISA BrdU (colorimetric) Kit (Roche Co., Ltd.).

In the case of `COc1cccc(-c2cc(=O)c3ccccc3o2)c1N` [PD98059], the “DNA synthesis activity in rat normal hepatocytes on simultaneous addition of PARI-S001 and kinase inhibitor” value was “suppress DNA synthesis activity in the rat normal hepatocytes depending on the concentration of the inhibitor”.
